Data from US11066709B2, “Methods for diagnosing and treating cancer by means of the expression status and mutational status of NRF2 and downstream target genes of said gene” (Genentech, Inc., priority 2016, dated 2021).
Residues, ends and D or L forms follow the SMILES beside them. *: point of attachment. Cbz = O=C(OCc1ccccc1)*

Experiments:
Format in all cases: cell-based
[1] = test system: KEAP1 mutant cell lines and KEAP1 wild-type cell lines; experiment: Growth in soft agar (anchorage independent conditions) of a panel of NSCLC cell lines
Experimental: (§1) FIG. 62 is a series of photographs showing colony formation of KEAP1 mutant cell lines and KEAP1 wild-type cell lines grown in soft agar (anchorage independent conditions) in the presence of IGF1 R inhibitors linsitinib and NVP-AEW541, and in the presence or absence of glutathione.
(§2) Expression of IGF1 R was greater in KEAP1 mutant NSCLC cells relative to KEAP1 wild-type NSCLC cell lines. To test the effect of IGF1 R inhibition on KEAP1 mutant and KEAP1 wild-type cells, cell lines were treated with linsitinib, a potent and selective IGF1 R small molecule inhibitor. […] However, this compound was very potent at inhibiting colony growth of A549 cells in soft agar, having an IC50 of about 20 nM.

A549 cells = experiment: Colony growth of A549 cells in soft agar; conditions: Homo sapiens, read-out: IC50 for inhibiting colony growth of A549 cells in soft agar
Experimental: as §1, §2

[2] = test system: three wild-type and three mutant KEAP1 NSCLC cell lines; experiment: Proliferation of wild-type and mutant KEAP1 NSCLC cell lines
KEAP1 mutant cell lines = experiment: Viability of KEAP1 wild-type versus KEAP1 mutant cell lines
Excerpt: FIG. 56A is a graph showing the IC50 of the glutaminase inhibitor BPTES on KEAP1 wild-type cell lines versus KEAP1 mutant cell lines.
FIG. 56B is a graph showing the viability of KEAP1 wild-type cell lines versus KEAP1 mutant cell lines in response to the glutaminase inhibitor BPTES.
FIG. 57A is a graph showing the IC50 of the […] buthionine sylphoximine (BSO) on KEAP1 wild-type cell lines versus KEAP1 mutant cell lines.
FIG. 57B is a graph showing the viability of KEAP1 wild-type cell lines versus KEAP1 mutant cell lines in response to BSO.

full-length NRF2 = experiment: Effect of KEAP1 on NRF2 expression in transfected 293 cells (Western blot); conditions: 293 cells transfected with NRF2 and KEAP1 plasmids
Experimental: FIG. 23 is a set of immunoblots showing the effect of NRF2 exon 2 and exon 2+3 deletions on KEAP1 interaction. 293 cells were transfected with plasmids expressing FLAG-NRF2, Δe2 FLAG-NRF2, Δe2+3 FLAG-NRF2 or HA-KEAP1. 48 hours after transfection, cells were lysed, and either lysates (top gel) or anti-FLAG immunoprecipitations were analyzed by Western blotting using the indicated antibodies.
Plasmid DNAs were transfected into cells using Lipofectamine 2000 (ThermoFisher) and OptiMEM (Gibco) as recommended by manufacturer protocol. Lysates were prepared 2-3 days post transfection. Expression plasmids used were pRK5.NRF2, pRK5.NRF2δe2, pRK5.NRF2δe2,3, pRK5.NRF2.FLAG and pRK5.KEAP1.HA.

[3] = test system: reactive oxygen species (ROS); experiment: ROS levels measured by H2DCF; conditions: exogenous glutathione, dichlorofluorescein staining
Excerpt: FIG. 49 is bar graph showing reactive oxygen species (ROS) levels under indicated conditions as measured using 2′,7′-dichlorodihydrofluorescein diacetate (H2DCF). Error bars represent standard deviation from triplicate wells.
FIG. 53 is a histogram showing increasing ROS levels in response to shNRF2 and/or erastin, as measured by H2DCF.

[4] = test system: KEAP1 mutant and KEAP1 wild-type cell lines; experiment: Colony formation in soft agar with or without NRF2 knockdown
Experimental: Representative areas of the plate were photographed. FIG. 44 is a series of bar graphs showing the quantified colony formation for each cell type and treatment group shown in FIG. 43. Error bars represent standard deviation from biological triplicate wells. FIG. 48 is a series of photographs showing A549 cells expressing NRF2sh10 shRNA plated into regular tissue culture dishes (top) or soft agar (bottom). Cells were treated with either vehicle or 500 ng/ml doxycycline, in the presence or absence of 2 mM N-acetyl cysteine (NAC).

Structure (SMILES): C[C@]1(O)C[C@@H](c2nc(-c3ccc4ccc(-c5ccccc5)nc4c3)c3c(N)nccn32)C1 [linsitinib]
- selectivity of growth inhibition for KEAP1 mutant cell lines [1]: selective growth inhibition in soft agar of this compound in KEAP1 mutant cell lines
- IC50 (A549 cells): ~20 nM
- effect on proliferation [2]: little effect on proliferation

Structure (SMILES): O=C(Cc1ccccc1)Nc1nnc(CCSCCc2nnc(NC(=O)Cc3ccccc3)s2)s1 [BPTES]
- preferential toxicity for KEAP1 mutant cell lines (KEAP1 mutant cell lines): did not display preferential toxicity

Structure (SMILES): CC(C)C[C@@H](C=O)NC(=O)[C@H](CC(C)C)NC(=O)[C@H](CC(C)C)NC(=O)OCc1ccccc1 [MG132] (Cbz-Leu-Leu-Leu-aldehyde)
- inhibitory effect of KEAP1 on full-length NRF2 expression (full-length NRF2): mostly abolished

Structure (SMILES): N[C@@H](CCC(=O)N[C@@H](CS)C(=O)NCC(=O)O)C(=O)O [reduced glutathione, glutathione]
- ROS levels [3]: reduce reactive oxygen (ROS) levels
- ability to form colonies in soft agar ([4]; all tested cell lines, 1 mM reduced glutathione): generally increased the ability of all tested cell lines to form colonies in soft agar
- rescue of the consequences of NRF2 knockdown ([4]; soft agar, dox-induced NRF2 shRNA): unable to rescue the consequences of NRF2 knockdown

Structure (SMILES): CCCCS(=N)(=O)CCC(N)C(=O)O (stereo not drawn) [BSO, buthionine sylphoximine]
- preferential toxicity for KEAP1 mutant cell lines (KEAP1 mutant cell lines): did not display preferential toxicity
